Laboratory results reported in patent publication US4241066A, “14-Amino derivatives of morphine, methods of making them and analgesic compositions containing them” (priority 1977, dated 1980).

Tests used:
opiate receptor [1] = target: T1, opiate receptor (Rattus norvegicus, UniProt P33535); format: in vivo; details: tail flick, hot water bath 55° C., administered subcutaneously
T1 construct: from tissue; host or cells: living rat (whole animal, subcutaneous dosing)
Experimental: (§1) Chemother., 6, 572 (1951) and for morphine antagonist activity in rat using a tail flick test modified from the method described for mice by Ben Bassat et al (Arch Int. Pharmacoldyn. 122, 434 [1959]). The nociceptive stimulus in this test is a hot water bath (55° C.).

opiate receptor [2] = assay: in vivo agonist test in the rat, tail pressure as nociceptive stimulus (Green and Young); details: administered subcutaneously
Experimental: as §1, with “The compounds have been screened for agonist activity in the rat using tail pressure as the nociceptive stimulus as described by Green, H. F., and Young, P. A., Br. J. Pharmac. Chemother.,” for “Chemother.,”

T1 sequence (P33535 whole entry): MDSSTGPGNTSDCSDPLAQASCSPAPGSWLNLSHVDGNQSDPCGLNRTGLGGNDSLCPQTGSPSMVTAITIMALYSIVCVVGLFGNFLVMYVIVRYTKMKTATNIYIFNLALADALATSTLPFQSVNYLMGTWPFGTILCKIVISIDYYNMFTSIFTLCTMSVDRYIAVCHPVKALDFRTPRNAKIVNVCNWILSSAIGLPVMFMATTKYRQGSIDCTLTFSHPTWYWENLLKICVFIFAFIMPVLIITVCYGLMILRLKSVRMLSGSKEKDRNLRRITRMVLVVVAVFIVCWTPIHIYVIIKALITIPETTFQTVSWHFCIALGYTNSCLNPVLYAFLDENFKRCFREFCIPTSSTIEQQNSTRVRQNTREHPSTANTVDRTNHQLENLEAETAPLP

| Structure (SMILES) | AD50 (morphine antagonist) (opiate receptor [1]) [mg/kg] | ED50 (agonist, antinociceptive) (opiate receptor [2]) [mg/kg] |
| --- | --- | --- |
| O=CN[C@@]12C=CC(=O)[C@@H]3Oc4c(O)ccc5c4[C@@]31CCN(CC1CC1)[C@@H]2C5 [Example 49] | 0.132 | – |
| CCCCCC(=O)N[C@@]12C=CC(=O)[C@@H]3Oc4c(O)ccc5c4[C@@]31CCN(CC1CC1)[C@@H]2C5 [Example 54] | – | 0.0036 |
| CCCCCCN[C@@]12C=CC(=O)[C@@H]3Oc4c(OC)ccc5c4[C@@]31CCN(CC1CC1)[C@@H]2C5 [Example 38] | – | 1.92 |
| CN1CC[C@]23c4c5ccc(O)c4O[C@H]2[C@@H](O)C=C[C@H]3[C@H]1C5 [morphine] | – | 0.66 |
| O=C1C=C[C@@]2(NCC3CC3)[C@H]3Cc4ccc(O)c5c4[C@@]2(CCN3CC2CC2)[C@H]1O5 [Example 48] | 0.0027 | – |
